Key:
[1] = test system: α-1,4-glucan lyase; assay: Effect of alcohols on activity and stability of the lyase (AF yield); format: biochemical, Gracilariopsis lemaneiformis
Procedure: 1-propanol, 2-propanol and 1-butanol were tested at the following concentrations (0%, 1%, 5% and 10%).
Ethanol was tested at the following concentrations (0, 1, 3, 5, 7, 9, 11, 13, 15%).

[2] = test system: α-1,4-glucan lyase; assay: Degradation studies: AF released by the lyase from various substrates; format: biochemical, Gracilariopsis lemaneiformis; details: for activity of the lyase towards maltosaccharides / degradation by the lyase: in words; for AF released: substrate 10 mg/ml, 10 mM HOAc-NaOAc pH 3.8, 40 min at 45° C., 100 ul
Procedure: Reaction conditions: The reaction mixture contained 10 mM of HOAc-NaOAc (pH 3.8). The substrate concentration was 10 mg/ml. The final volume was 100 ul after the addition of lyase and water. The reaction time was 40 min at 45° C.

[3] = test system: α-1,4-glucan lyase; assay: Reversible and irreversible inhibitors of the lyase; format: biochemical, Gracilariopsis lemaneiformis
[4] = Isoelectric focusing of the α-1,4-glucan lyases; format: physicochemical; details: isoelectrofocusing, pH gradient 3-9
Excerpt: The relative migration rates were estimated from native PAGE on gels with 8-25% gradient; the pI values were estimated by isoelectrofocusing on gels with a pH gradient of 3-9.
FIG. 2. Isoelectric focusing of the α-1,4-glucan lyases on a gel with a pH gradient of pH 3 to pH 9. The gel was stained with PhastGel Blue R.

In the case of 1-butanol, the “increase of AF yield” value ([1]; optimal concentration 5%, after 3-day incubation) is reported as 52%.

With 1-propanol the AF yield ([1]; 1% (v/v), reaction time 1 day) was 80 µmol, the AF yield ([1]; 1% (v/v), reaction time 3 days) was 280 µmol and the AF yield ([1]; 1% (v/v), reaction time 6 days) was 530 µmol. It also gave an AF yield ([1]; 1% (v/v), reaction time 10 days) of 803 µmol, an AF yield ([1]; 5% (v/v), reaction time 1 day) of 115 µmol and an AF yield ([1]; 5% (v/v), reaction time 3 days) of 367 µmol. For the same molecule, the AF yield ([1]; 5% (v/v), reaction time 6 days) was 605 µmol, the AF yield ([1]; 5% (v/v), reaction time 10 days) was 853 µmol and the AF yield ([1]; 10% (v/v), reaction time 1 day) was 107 µmol. The AF yield ([1]; 10% (v/v), reaction time 3 days) was 307 µmol, the AF yield ([1]; 10% (v/v), reaction time 6 days) was 456 µmol and the AF yield ([1]; 10% (v/v), reaction time 10 days) was 583 µmol. The “increase of AF yield” value ([1]; optimal concentration 5%, after 6 days of incubation) was 34%.

For CC(C)O [2-propanol], the “increase of AF yield” value ([1]; optimal concentration 1%, after 10 days incubation) was 20%.

In the case of CCO [Ethanol], the “increase of AF yield” value ([1]; optimal concentration 3%, 10 days incubation) is reported as 16% and the “increase of AF yield” value ([1]; optimal concentration 5%, 7 days incubation) is reported as 12%.

With OC[C@H]1O[C@H](O[C@H]2[C@H](O)[C@@H](O)[C@@H](O[C@H]3[C@H](O)[C@@H](O)[C@@H](O[C@H]4[C@H](O)[C@@H](O)C(O)O[C@@H]4CO)O[C@@H]3CO)O[C@@H]2CO)[C@H](O)[C@@H](O)[C@@H]1O (stereo partly drawn) [Maltotetraose] the “activity of the lyase towards maltosaccharides” value [2] was “highest activity” and the AF released [2] was 670 nmol.

With OCC1OC(OC2C(CO)OC(OC3C(CO)OC(O)C(O)C3O)C(O)C2O)C(O)C(O)C1O (stereo not drawn) [Maltotriose] the “activity of the lyase towards maltosaccharides” value [2] was “lower activity” and the AF released [2] was 654 nmol.

With O=C(O)c1cc[c]([Hg][Cl])cc1 [PCMB, p-chloromercuribenzoic acid] the “decrease of lyase activity” value ([3]; 2 mM PCMB, same assay conditions as for deoxyjirimycin (substrate 2% amylopectin)) was 60% and the “inhibition of the lyase activity” value ([3]; final concentration 2 mM PCMB) was 96%.

For OC[C@H]1NC[C@H](O)[C@@H](O)[C@@H]1O [deoxyjirimycin], the remaining lyase activity ([3]; 25 μM inhibitor, substrate amylopectin 2%, algal lyase) was 10.4% and the lyase activity ([3]; 100 μM inhibitor, substrate amylopectin 2%) was “completely lost”.

For OC[C@H]1O[C@H](OC[C@H]2OC(O)[C@H](O)[C@@H](O)[C@@H]2O)[C@H](O)[C@@H](O)[C@@H]1O (stereo partly drawn) [isomaltose], the “degradation by the lyase” value [2] was “not able to degrade”.

For OC[C@H]1O[C@H](O[C@H]2[C@H](O)[C@@H](CO)OC(O)[C@@H]2O)[C@H](O)[C@@H](O)[C@@H]1O (stereo partly drawn) [nigerose], the “degradation by the lyase” value [2] was “slow rate”.

With OC[C@H]1O[C@H](O[C@H]2O[C@H](CO)[C@@H](O)[C@H](O)[C@H]2O)[C@H](O)[C@@H](O)[C@@H]1O [trehalose] the “degradation by the lyase” value [2] was “not able to degrade”.

With OC[C@H]1O[C@@H]2O[C@H]3[C@H](O)[C@@H](O)[C@@H](O[C@H]4[C@H](O)[C@@H](O)[C@@H](O[C@H]5[C@H](O)[C@@H](O)[C@@H](O[C@H]6[C@H](O)[C@@H](O)[C@@H](O[C@H]7[C@H](O)[C@@H](O)[C@@H](O[C@H]8[C@H](O)[C@@H](O)[C@@H](O[C@H]1[C@H](O)[C@H]2O)O[C@@H]8CO)O[C@@H]7CO)O[C@@H]6CO)O[C@@H]5CO)O[C@@H]4CO)O[C@@H]3CO [β-cyclodextrins] the “degradation by the lyase” value [2] was “not able to degrade”.

For Maltoheptaose, the “activity of the lyase towards maltosaccharides” value [2] was “lower activity” and the AF released [2] was 865 nmol.

Maltohexaose gave an AF released [2] of 826 nmol.

In the case of Maltopentaose, the “activity of the lyase towards maltosaccharides” value [2] is reported as “highest activity” and the AF released [2] is reported as 674 nmol.

In the case of nigeran tetrasaccharide, the “degradation by the lyase” value [2] is reported as “not able to degrade”.

With panose the “degradation by the lyase” value [2] was “slow rate”.

With pullulan the “degradation by the lyase” value [2] was “not able to degrade”.

B1: MC-lyase: lyase isolated from the fungus Morchella costata, ATCC (protein)
chain: MAGFSDPLNFCKAEDYYSVALDWKGPQKIIGVDTTPPKSTKFPKNWHGVNLRFDDGTLGVVQFIRPCVWRVRYDPGFKTSDEYGDENTRTIVQDYMSTLSNKLDTYRGLTWETKCEDSGDFFTFSSKVTAVEKSERTRNKVGDGLRIHLWKSPFRIQVVRTLTPLKDPYPIPNVAAAEARVSDKVVWQTSPKTFRKNLHPQHKMLKDTVLDIVKPGHGEYVGWGEMGGIQFMKEPTFMNYFNFDNMQYQQVYAQGALDSREPLYHSDPFYLDVNSNPEHKNITATFIDNYSQIAIDFGKTNSGYIKLGTRYGGIDCYGISADTVPEIVRLYTGLVGRSKLKPRYILGAHQACYGYQQESDLYSVVQQYRDCKFPLDGIHVDVDVQDGFRTFTTNPHTFPNPKEMFTNLRNNGIKCSTNITPVISINNREGGYSTLLEGVDKKYFIMDDRYTEGTSGNAKDVRYMYYGGGNKVEVDPNDVNGRPDFKDNYDFPANFNSKQYPYHGGVSYGYGNGSAGFYPDLNRKEVRIWWGMQYKYLFDMGLEFVWQDMTTPAIHTSYGDMKGLPTRLLVTSDSVTNASEKKLAIETWALYSYNLHKATWHGLSRLESRKNKRNFILGRGSYAGAYRFAGLWTGDNASNWEFWKISVSQVLSLGLNGVCIAGSDTGGFEPYRDANGVEEKYCSPELLIRWYTGSFLLPWLRNHYVKKDRKWFQEPYSYPKHLETHPELADQAWLYKSVLEICRYYVELRYSLIQLLYDCMFQNVVDGMPITRSMLLTDTEDTTFFNESQKFLDNQYMAGDDILVAPILHSRKEIPGENRDVYLPLYHTWYPSNLRPWDDQGVALGNPVEGGSVINYTARIVAPEDYNLFHSVVPVYVREGAIIPQIEVRQWTGQGGANRIKFNIYPGKDKEYCTYLDDGVSRDSAPEDLPQYKETHEQSKVEGAEIAKQIGKKTGYNISGTDPEAKGYHRKVAVTQTSKDKTRTVTIEPKHNGYDPSKEVGDYYTIILWYAPGFDGSIVDVSKTTVNVEGGVEHQVYKNSDLHTVVIDVKEVIGTTKSVKITCTAA
For B1, the pI [4] was 4.5.

B2: GLsc1-lyase: lyase purified from Gracilariopsis lemaneiformis collected in Santa Cruz, Calif. (protein)
chain: TALSDKQTAISIGPDNPDGINYQNYDYIPVAGFTPLSNTNWYAAGSSTPGGITDWTATMNVKFDRIDNPSYSNNHPVQIQVTSYNNNSFRIRFNPDGPIRDVSRGPILKQQLTWIRNQELAQGCNPNMSFSPEGFLSFETKDLNVIIYGNCKMRVTKKDGYLVMENDECNSQSDGNKCRGLMYVDRLYGNAIASVQTNFHKDTSRNEKFYGAGEVNCRYEEQGKAPTYVLERSGLAMTNYNYDNLNYNQPDVVPPGYPDHPNYYIPMYYAAPWLVVQGCAGTSKQYSYGWFMDNVSQSYMNTGDTAWNCGQENLAYMGAQYGPFDQHFVYGDGDGLEDVVKAFSFLQGKEFEDKKLNKRSVMPPKYVFGFFQGVFGALSLLKQNLPAGENNISVQEIVEGYQDNDYPFEGLAVDVDMQDDLRVFTTKPEYWSANMVGEGGDPNNRSVFEWAHDRGLVCQTNVTCFLRNDNSGKPYEVNQTLREKQLYTKNDSLNNTDFGTTSDGPGDAYIGHLDYGGGVECDAIFPDWGRPDVAQWWGENYKKLFSIGLDFVWQDMTVPAMMPHRLGDAVNKNSGSSAPGWPNENDPSNGRYNWKSYHPQVLVTDMRYGAEYGREPMVSQRNIHAYTLCESTRREGIVGNADSLTKFRRSYIISRGGYIGNQHFGGMWVGDNSATESYLQMMLANIINMNMSCLPLVGSDIGGFTQYNDAGDPTPEDLMVRFVQAGCLLPWFRNHYDRWIESKKHGKKYQELYMYPGQKDTLKKFVEFRYRWQEVLYTAMYQNATTGEPIIKAAPMYNNDVNVYKSQNDHFLLGGHDGYRILCAPVVRENATSREVYLPVYSKWFKFGPDFDTKPLENEIQGGQTLYNYAAPLNDSPIFVREGTILPTRYTLDGVNKSINTYTDNDPLVFELFPLENNQAHGLFYHDDGGVTTNAEDFGKYSVISVKAAQEGSQMSVKFDNEVYEHQWGASFYVRVRNMGAPSNINVSSQIGQQDMQQSSVSSRAQMFTSANDGEYWVDQSTNSLWLKLPGAVIQDAAITVR
B2 showed a pI [4] of 4.1.

— patent US6541237B1, “A-1,4-glucan lyase and its use in the production of 1.5-androfructose” (Danisco A/S, priority 1994, dated 2003)
